The values below come from patent EP4711377A1, “STEROID COMPOUND, PREPARATION METHOD THEREFOR, AND USE THEREOF” (Shujing Biopharma Co., Ltd, priority 2023, dated 2024).

Each structure is given as a SMILES string.

For data set [1], the system named is C57 mice. The data set is described as follows: forced swimming test in mice. Format: in vivo. Particulars: 3 mg/kg p.o.; for immobility time during minutes 2-6, Mean value: one hour after the administration. An excerpt:
(§1) The core manifestations of depression are despair, helplessness, and anhedonia. The forced swimming test is commonly used to evaluate despair-like behavior. In this test, the animal is placed in an unpleasant and inescapable environment (a water tank). […] Anhedonia means a loss of interest in things that were once pleasurable; in rodents, it is typically manifested as a reduced preference for sweet foods (sucrose). Therefore, the in vivo efficacy of the compounds of the examples of the present disclosure in mice can be evaluated by forced swimming and sucrose preference tests.
(§2) Female/male C57 mice, purchased from SPF (Suzhou) Biotechnology Co., Ltd.
(§3) Note: ①Vehicle: 5% of DMSO + 5% of HS-15 + 90% of 20% hydroxypropyl-β-cyclodextrin (10 mL/kg, p.o.).
Forced swimming: Animals were divided into a control group and various test drug administration dose groups, which were subjected to vehicle and test drug administration, respectively. One hour after the administration, the animals were placed in a 25 °C plexiglass cylinder with a water depth of 20 cm. The swimming status of the animals in the water was recorded by video, and the immobility time of the animals (characterized by floating in the water and stopping struggling) during minutes 2-6 was recorded and analyzed.
(§4) Experimental data were expressed as χ ± SEM. One-way analysis of variance was employed, and pairwise comparisons were performed using Dunnett's multiple comparisons tests. The floating immobility time, swimming time, and struggling time were recorded.

The test system of data set [2] is C57 mice. Nature of the data set: sucrose preference test in mice. Particulars: 3 mg/kg p.o.; for Sucrose preference degree, Mean value: mice with chronic stress, 2 h free drinking. Format: in vivo.
Excerpt: as §1, §2, §3
Sugar preference: D1: a 1% sucrose solution was provided on both sides; D2/3: drinking water was provided on one side, while a 1% sucrose solution was provided on the other side; D4: water and food were deprived; D5: sucrose preference degree was tested. During the test, the mice with chronic stress were subjected to administration according to the experimental groups. After the administration, pre-weighed sucrose solution and drinking water were provided on […]. The animals were allowed free access to drinking for 2 h in a dark environment, and during this period, the positions of the sucrose solution and drinking water were switched at the 1-hour mark.
as §4
Sucrose preference degree (%) = sucrose solution consumption/(sucrose solution consumption + purified water consumption) × 100%.

A short description of data set [3]: in vivo pharmacokinetic experiment in mice. Further details: species or system ICR mice. Particulars: male, ICR, mouse; oral intragastric administration 10 mg/kg, single, plasma. Here is the method: Male ICR mice were subjected to oral intragastric administration. The plasma concentrations of the compounds of the present disclosure in the mice were measured, the PK parameters were calculated, and pharmacokinetic evaluation was performed on the compounds of the present disclosure.
Drug preparation: according to the weight of the weighed drug, the preparation volume was calculated; 5% of DMSO and 5% of HS-15 were added sequentially; after the drug was fully dissolved, 90% of a 20% aqueous β-cyclodextrin solution was added, and the mixture was well mixed for later use.
Route of administration: oral intragastric administration, at a dose of 10 mg/kg.
Administration frequency and duration: single administration.
ICR mice were stratified according to body weight and then randomly grouped, with 9 mice per group. The mice were fasted overnight prior to the experiment. The mice were subjected to oral intragastric administration. At 0 h, 0.167 h, 0.333 h, 0.5 h, 1 h, 2 h, 4 h, 6 h, 8 h, 12 h, and 24 h, 50 µL of blood was collected from the fundus vein of each mouse into a sample tube containing heparin sodium as an anticoagulant, and then the tube was placed in wet ice and centrifuged at 4000 r·min^-1 for 10 min. The plasma was separated, and cryopreserved in a refrigerator at -80 °C for testing.
The concentrations of the plasma samples were measured by high-performance liquid chromatography-tandem mass spectrometry (LC-MS/MS). The retention times of the compounds and internal standard, chromatographic acquisitions, and integrals of chromatograms were processed using the software Analyst (AB SCIEX), and statistical analysis of the data was performed using the software Microsoft office. The plasma concentrations were processed using a non-compartmental model of the pharmacokinetic software WinNonlin™ Version 6.3 (Pharsight, Mountain View, CA), and the pharmacokinetic parameters were calculated using a linear log-trapezoidal method. Table 4. Results of pharmacokinetic experiment in mice

On to `C[C@@]1(O)CC[C@H]2[C@H](CC[C@@H]3[C@@H]2CC[C@]2(C)[C@@H](C(=O)Cn4cc(C#N)cn4)CC[C@@H]32)C1` [Sage-217, reference compound], for which the “immobility time during minutes 2-6, Mean value” in the data set on C57 mice [1] came out at 56.38 s. Besides, in the data set with C57 mice [2], the “Sucrose preference degree, Mean value” was 84.31%. Also, in data set [3], the AUC(0-t) came to 9160 ng·h/mL, the peak level (Cmax) was 1510 ng/mL and the Tmax was 1 h.
On to `C[C@H]1C[C@H]2[C@H](CC[C@@H]3[C@@H]2CC[C@]2(C)[C@@H](C(=O)Cn4ncnn4)CC[C@@H]32)C[C@]1(C)O` [Example 20, 1-((2S,3S,5R,8R,9R,10S,13S,14S,17S)-3-Hydroxy-2,3,13-trimethylhexadecahydro-1H-cyclopenta[a]phenanthren-17-yl)-2-(2H-tetrazol-2-yl)ethan-1-one], for which, in data set [3], the AUC(0-t) came out at 32200 ng·h/mL, the peak level (Cmax) was 2580 ng/mL, the time of peak concentration (Tmax) came to 0.5 h and the half-life was 2.59 h.
In the case of `C[C@@H]1C[C@H](C(=O)Cn2ncnn2)[C@@]2(C)CC[C@H]3[C@@H](CC[C@@H]4C[C@](C)(O)[C@@H](C)C[C@@H]43)[C@H]12` [Example 9, 1-((2S,3S,5R,8R,9R,10S,13S,14S,15R,17S)-3-Hydroxy-2,3,13,15-tetramethylhexadecahydro-1H-cyclopenta[a]phenanthren-17-yl)-2-(2H-tetrazol-2-yl)ethan-1-one], the “immobility time during minutes 2-6, Mean value” in the data set with C57 mice [1] is listed as 54.68 s. Also, in the data set on C57 mice [1] (conclusion in words), the “effect on immobility time compared to the blank group” value was “significantly reduce the immobility time”. In addition, the “Sucrose preference degree, Mean value” with C57 mice [2] was determined as 88.37%. Further, in the data set on C57 mice [2] (conclusion in words), the “effect on sucrose preference degree compared to the blank group” value was “significantly improve the sucrose preference degree”. Also, in data set [3], the AUC(0-t) stood at 23600 ng·h/mL, the concentration peaked (Cmax) at 3480 ng/mL, the time to peak (Tmax) was found to be 0.33 h and the half-life was 2.35 h.
